Results reported in PMC11070508, “Design, synthesis, molecular docking, and molecular dynamic studies of novel quinazoline derivatives as phosphodiesterase 7 inhibitors” (Frontiers in Pharmacology, 2024).
“Also recorded” adds a separate entry of the source. Where two headings read alike, the source gives them in different places.

Assays:
PDE7A = biological target: T1, PDE7A (Homo sapiens, UniProt Q13946); assay: In vitro PDE7A inhibitory activity assay (fluorescence polarization PDE7A Assay Kit, BPS Bioscience); format: biochemical; conditions: for IC50: fluorescence polarization kit
T1 construct: purchased BPS Bioscience 60373
T1 sequence (Q13946 whole entry): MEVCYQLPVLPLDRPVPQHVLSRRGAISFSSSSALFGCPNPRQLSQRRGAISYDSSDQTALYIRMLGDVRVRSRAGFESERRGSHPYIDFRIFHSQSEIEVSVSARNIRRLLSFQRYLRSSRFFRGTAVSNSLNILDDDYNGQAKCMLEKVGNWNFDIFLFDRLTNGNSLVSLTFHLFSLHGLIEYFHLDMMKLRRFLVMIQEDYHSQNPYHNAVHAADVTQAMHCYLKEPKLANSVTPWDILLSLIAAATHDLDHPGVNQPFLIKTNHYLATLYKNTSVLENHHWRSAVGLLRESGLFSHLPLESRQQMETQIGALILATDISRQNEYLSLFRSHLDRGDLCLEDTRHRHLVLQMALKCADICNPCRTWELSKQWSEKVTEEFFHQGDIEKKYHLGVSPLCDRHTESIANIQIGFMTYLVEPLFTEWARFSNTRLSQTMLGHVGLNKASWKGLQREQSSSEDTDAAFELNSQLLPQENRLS
Procedure: The inhibitory activity of the compounds was determined as half maximal inhibitory concentration IC50 in μM ([Malik et al., 2008]; [Pekkinen et al., 2008]).
All the newly synthesized compounds 4a-h and 5a-h were evaluated for in vitro PDE7A inhibitory activity using a fluorescence polarization PDE7A Assay Kit (Catalog no. 60373; BPS Bioscience) ([Malik et al., 2008]; [Pekkinen et al., 2008]). The assay is based on the binding of fluorescent nucleotide, a monophosphate generated by PDE7A to the binding agent. PDE7A catalyzes the hydrolysis of the phosphodiester bond in dye-labeled cyclic adenosine monophosphate (cAMP). Nanoparticle beads selectively bind the phosphate group in the nucleotide product. This increases the size of the nucleotide relative to unreacted cAMP. Since the degree of polarization of a fluorophore is inversely related to its molecular rotation, dyes attached to the slowly rotating nucleotide-bead complexes will not have time to reorient and therefore will emit highly polarized light. Conversely, dyes attached to the rapidly rotating cyclic monophosphates will obtain random orientations and emit light with low polarization.
The PDE7A inhibitor screening assay kit comes in a convenient 384-well format, including purified PDE7A enzyme, fluorescently labeled PDE7A substrate (cAMP), binding agent, and PDE assay buffer for 384 enzyme reactions. The key to the PDE7A Assay Kit is the specific binding agent. Using this kit, only two simple steps on a microtiter plate are required for PDE7A reactions. First, the fluorescently labeled cAMP is incubated with a sample containing PDE7A for 1 h. Second, a binding agent is added to the reaction mix to produce a change in fluorescent polarization that can then be measured using a fluorescence reader. The microtiter plate reader is capable of excitation at wavelengths ranging from 485 ± 15 nm and detection of emitted light ranging from 528 ± 10 nm. […] The inhibitory activity of the tested compounds was determined as half maximal inhibitory concentration IC50 in μM compared to the two reference standards.
This in vitro testing assay was carried out at the confirmatory diagnostic unit, Vacsera, Egypt, and the results are presented in Table 1 and represented in Figure 2. […] Halogen atoms are lipophilic substituents commonly used in the design of novel biologically active molecules.

PDE7 = conditions: cited from earlier work

Structure (SMILES)	PDE7A inhibitory activity (result in words) (PDE7A)	IC50 (PDE7A) [µM]	melting point [°C]	IC50 (PDE7; ref Elfeky et al., 2020) [nM]	IC50 (PDE7; ref Sánchez et al., 2013) [nM]
Clc1ccc2nc(Cl)nc(NN=Cc3c[nH]c4ccc(Br)cc34)c2c1 [Compound 4g, 4-[2-(5-bromo-1H-3-indolylmethylene)hydrazino]-2,6-dichloroquinazoline]	good potency; also recorded: good activity	0.15	< 280		
OCc1ccc(C=NNc2nc(Cl)nc3ccccc23)o1 [Compound 4a, 2-Chloro-4-[2-(5-hydroxymethyl-2-furylmethylene)hydrazino]quinazoline]	among the least effective compounds	0.653	> 280		
OCc1ccc(-c2nnc3c4ccccc4nc(Cl)n23)o1 [Compound 5a, 5-Chloro-3-(5-hydroxymethyl-2-furyl)-1,2,4-triazolo[4,3-c]quinazoline]		0.251	> 280		
Clc1nc2ccccc2c2nnc(-c3cccnc3)n12 [Compound 5b, 5-Chloro-3-(3-pyridyl)-1,2,4-triazolo[4,3-c]quinazoline]	high PDE7 inhibitory potencies	0.32	> 280		
Cc1ccc([N+](=O)[O-])cc1S(=O)(=O)N(C)C [BRL50481, reference compound]		0.034			
OCc1ccc(C=NNc2nc(Cl)nc3ccc(Cl)cc23)o1 [Compound 4e, 2,6-Dichloro-4-[2-(5-hydroxymethyl-2-furylmethylene)hydrazino]quinazoline]	among the least effective compounds	1.97	< 280		
Clc1ccc2nc(Cl)n3c(-c4ccnc5ccccc45)nnc3c2c1 [Compound 5h, 5,9-Dichloro-3-(4-quinolinyl)-1,2,4-triazolo[4,3-c]quinazoline]	very low PDE7 inhibitory effect	1.8	< 280		
Clc1ccc2nc(Cl)nc(NN=Cc3cccnc3)c2c1 [Compound 4f, 2,6-Dichloro-4-[2-(3-pyridylmethylene)hydrazino]quinazoline]	high PDE7 inhibitory potencies	0.343	198 to 200		
Cn1c(-c2ccoc2)nc(=O)c2ccccc21 [B]				90	
Clc1nc(NN=Cc2cccnc2)c2ccccc2n1 [Compound 4b, 2-Chloro-4-[2-(3-pyridylmethylene)hydrazino]quinazoline]	good potency; also recorded: high PDE7 inhibitory potencies; also recorded: highest selective PDE7A inhibitors	0.114	< 280		
Clc1nc(NN=Cc2c[nH]c3ccc(Br)cc23)c2ccccc2n1 [Compound 4c, 4-[2-(5-bromo-1H-3-indolylmethylene)hydrazino]-2-chloroquinazoline]		0.478	238 to 240		
CC(C)c1nc(SCc2ccc(-c3ccccc3-c3nnn[nH]3)cc2)c2ccccc2n1 [C]					770
Clc1ccc2nc(Cl)nc(NN=Cc3ccnc4ccccc34)c2c1 [Compound 4h, 2,6-Dichloro-4-[2-(4-quinolinylmethylene)hydrazino]quinazoline]	very low PDE7 inhibitory effect	0.627	< 280		
O=c1[nH]c(=S)[nH]c2cc(F)c(F)cc12 [A]				70	
Clc1nc(NN=Cc2ccnc3ccccc23)c2ccccc2n1 [Compound 4d, 2-Chloro-4-[2-(4-quinolinylmethylene)hydrazino]quinazoline]		0.249	205 to 207		
CC(C)c1nc(SCc2ccc(-c3ccc(C(=O)O)cc3)cc2)c2ccccc2n1 [D]					930
Clc1nc2ccccc2c2nnc(-c3ccnc4ccccc34)n12 [Compound 5d, 5-Chloro-3-(4-quinolinyl)-1,2,4-triazolo[4,3-c]quinazoline]	very low PDE7 inhibitory effect	0.894	220 to 222		
OCc1ccc(-c2nnc3c4cc(Cl)ccc4nc(Cl)n23)o1 [Compound 5e, 5,9-Dichloro-3-(5-hydroxymethyl-2-furyl)-1,2,4-triazolo[4,3-c]quinazoline]	among the least effective compounds	1.34	< 280		
Clc1ccc2nc(Cl)n3c(-c4c[nH]c5ccc(Br)cc45)nnc3c2c1 [Compound 5g, 3-(5-Bromo-3-indolyl)-5,9-dichloro-1,2,4-triazolo[4,3-c]quinazoline]	good activity	0.407	> 280		
Clc1nc2ccccc2c2nnc(-c3c[nH]c4ccc(Br)cc34)n12 [Compound 5c, 3-(5-Bromo-3-indolyl)-5-chloro-1,2,4-triazolo[4,3-c]quinazoline]	good potency; also recorded: good activity	0.18	200 to 202		
Clc1ccc2nc(Cl)n3c(-c4cccnc4)nnc3c2c1 [Compound 5f, 5,9-Dichloro-3-(3-pyridyl)-1,2,4-triazolo[4,3-c]quinazoline]	good potency; also recorded: high PDE7 inhibitory potencies; also recorded: highest selective PDE7A inhibitors	0.142	219 to 221		
